Measured values reported in paper PMC5004293, “Characterization of FRM-36143 as a new γ-secretase modulator for the potential treatment of familial Alzheimer’s disease” (Alzheimer's Research & Therapy, 2016).
Read-outs that look alike come from different tables or passages of the source.

Experiments:
[1] = system: γ-secretase; assay: Immunoprecipitation / MALDI-TOF mass spectrometry of Aβ peptides in H4 cell media; assay type: cell-based, human; settings: 300 nM, overnight
Method: (§1) Human neuroglioma H4 cells stably expressing wild-type human APP751 were used for this assay. Briefly, cells were plated at 15,000 cells/well in 96-well plates and left to settle for 6 h (37 °C; 5 % CO2). Cells were then washed three times with Pro293™ chemically defined medium (Lonza, Walkersville, MD, USA) followed by the addition of the compound (0.3 % final DMSO). Plates were incubated overnight, and the supernatant was removed for quantification of Aβ peptides by sandwich enzyme-linked immunosorbent assay (ELISA) (see below). Cytotoxicity was evaluated using Cell-Titer 96 W AQueous One Solution Cell Proliferation Assay (MTS Assay, Promega) according to the manufacturer’s protocol.
Immunoprecipitation of carboxyl-terminally truncated Aβ peptides from 4 mL of H4 cell media was conducted using the anti-Aβ antibody 6E10 (epitope 3–8 of Aβ; Covance, Inc., Dedham, MA, USA) or 4G8 (epitope 18–22 of Aβ; Covance, Inc., Dedham, MA, USA) coupled to magnetic beads as described elsewhere. After elution of the immunoprecipitated Aβ peptides, the detection was performed on an UltraFlextreme MALDI-TOF/TOF instrument (Bruker Daltonics, Bremen, Germany).

[2] = target: T1, γ-secretase (Homo sapiens, UniProt P49768); assay: Aβ in media and intracellular small peptides of HEK cells expressing APPsw and WT presenilin; assay type: cell-based; settings: HEK APPsw, 1 μM
T1 construct: expressed in transfected cells; host or cells: HEK cells stably expressing APPsw and WT PS1
Method: (§2) Aβ peptide levels were quantified by sandwich ELISA using anti-Aβ38, anti-Aβ40, anti-Aβ42, (BioLegend, Dedham, MA, USA) or anti-Aβ37 for the capture and 4G8-horseradish peroxidase (HRP; BioLegend) for detection. When measuring Aβ37 and Aβ38, 4G8-HRP was added to the sample for overnight incubation, whereas it was added after the overnight incubation for 1 h for Aβ40 and Aβ42 measurements.
(§3) For cell-based assays, freshly collected samples of cultured cell supernatant were added to the plates and incubated at 4 °C for about 24 h. Detection was performed using SureBlue 3,3’,5,5’-tetramethylbenzidine (TMB) peroxidase substrate (KPL, Inc., Gaithersburg, MD, USA) and the plates read on a SpectraMax M5e microplate reader (Molecular Devices, Inc., Sunnyvale, CA, USA). GSM-treated samples were normalized to samples treated with DMSO alone (100 %) and 5 μM GSI, DAPT (0 %; Sigma-Aldrich). EC50 values were calculated from values reported as percentage of DMSO using nonlinear regression, based on a sigmoidal dose–response (variable slope) model.
The extractions were performed according to the methods described by Okochi et al.. Briefly, human embryonic kidney (HEK) cells stably expressing APPsw and PS1 derivatives were cultured to confluence in 10-cm dishes and the media replaced on the day of the experiment. […] Conditioned media were collected and cells were washed with ice-cold PBS and then immediately boiled for 2 min. A monitoring peptide (IVTL) and protease inhibitors were then added to the boiled samples, which were sonicated for 5 s three times and centrifuged at 100,000 × g for 1 h. The resultant supernatants were precipitated with TCA on ice for 15 min, centrifuged at 100,000 × g for 1 h, and filtered before being subjected to LC-MS/MS analysis to measure the tri-, tetra-, and pentapeptides as described elsewhere.

[3] = system: γ-secretase; assay: Aβ peptide ELISA in H4 cells stably expressing wild-type human APP751; assay type: cell-based
Method: as §1, §2, §3

[4] = system: γ-secretase with FAD PS1 mutations (H163R, M233L, R278I); assay: HEK cells overexpressing APPsw with FAD PS1 mutations; assay type: cell-based, human
Method: as §2, §3
The extractions were performed according to the methods described by Okochi et al.. Briefly, human embryonic kidney (HEK) cells stably expressing APPsw and PS1 derivatives were cultured to confluence in 10-cm dishes and the media replaced on the day of the experiment. Cells were treated with FRM-36143 in the presence of proteasome inhibitors (1 […], 100 nM MG262, and […]) for 1 h. Conditioned media were collected and cells were washed with ice-cold PBS and then immediately boiled for 2 min. A monitoring peptide (IVTL) and protease inhibitors were then added to the boiled samples, which were sonicated for 5 s three times and centrifuged at 100,000 × g for 1 h. The resultant supernatants were precipitated with TCA on ice for 15 min, centrifuged at 100,000 × g for 1 h, and filtered before being subjected to LC-MS/MS analysis to measure the tri-, tetra-, and pentapeptides as described elsewhere.

Aβ42 concentration in the media ([2]; 2 h, DMSO 154 ± 2): 105 ± 2 pM
Aβ38 concentration in the media ([2]; 2 h, DMSO 750 ± 62): 1548 ± 39 pM
Aβ40 concentration in the media ([2]; 2 h, DMSO 4021 ± 132): 3477 ± 120 pM
Aβtotal concentration in the media (Aβ38 + Aβ40 + Aβ42) ([2]; 2 h, DMSO 4925 ± 185): 5130 ± 92 pM
EC50 ([3]; H4 APP751 cells, overnight, ELISA, read-out: EC50 for Aβ37): 186 nM
EC50 ([3]; H4 APP751 cells, overnight, ELISA, read-out: EC50 for Aβ38): 38 nM
EC50 ([3]; H4 APP751 cells, overnight, ELISA, read-out: EC50 for Aβ40): 167 nM
EC50 ([3]; H4 cells expressing human WT APP751, overnight treatment, ELISA of conditioned media, read-out: EC50 for Aβ42): 35 nM
EC90 ([3]; assay not stated, compared with unbound brain concentration): 383 nM
EC50 ([3]; range over H4 cells and primary neurons, read-out: EC50 to reduce Aβ42 levels in cells): 35 to 53 nM
Structure (SMILES): COc1nc(C2=NOC[C@H](c3cc4ccccc4o3)N2)ccc1-n1cnc(C)c1 [FRM-36143, (R)-5-(benzofuran-2-yl)-3-(6-methoxy-5-(4-methyl-1H-imidazol-1-yl)pyridin-2-yl)-5,6-dihydro-4H-1,2,4-oxadiazine]
Percentage change (vs. DMSO) Aβ1–33 [1]: 161%
Percentage change (vs. DMSO) Aβ1–34 [1]: 125%
Percentage change (vs. DMSO) Aβ1–37 [1]: 407%
Percentage change (vs. DMSO) Aβ1–38 [1]: 126%
Percentage change (vs. DMSO) Aβ1–39 [1]: 46%
Percentage change (vs. DMSO) Aβ1–40 [1]: 26%
Percentage change (vs. DMSO) Aβ1–42 [1]: 21%
Percentage change (vs. DMSO) Aβ5–38 [1]: 150%
Percentage change (vs. DMSO) Aβ5–40 [1]: 40%
Normalized AUC Aβ1–33 ([1]; semi-quantitative): 2.9
Normalized AUC Aβ1–34 ([1]; semi-quantitative): 0.5
Normalized AUC Aβ1–37 ([1]; semi-quantitative): 23.6
Normalized AUC Aβ1–38 ([1]; semi-quantitative): 15
Normalized AUC Aβ1–39 ([1]; semi-quantitative): 1.6
Normalized AUC Aβ1–40 ([1]; semi-quantitative): 10
Normalized AUC Aβ1–42 ([1]; semi-quantitative): 0.4
Normalized AUC Aβ5–37 ([1]; semi-quantitative): 1.9
Normalized AUC Aβ5–38 ([1]; semi-quantitative): 1.5
Normalized AUC Aβ5–40 ([1]; semi-quantitative): 1.2
Intracellular production of small peptides VVIA and VVIAT (fourth cleavage step) ([2]; LC-MS/MS): increases the production of VVIA and VVIAT
Reversal of the effect of FAD PS1 mutations on APP processing ([4]; HEK APPsw with PS1 H163R, M233L or R278I, Aβ42:Aβ40, Aβ38:Aβ42, VVIA/VVIAT): able to reverse the effect of the mutations studied
Aβ38:Aβ42 ratio (fourth cleavage step) ([4]; PS1 R278I mutant): significant increase
Aβ42:Aβ40 ratio ([4]; PS1 R278I mutant): remains unchanged
